Measurements published in patent publication US20120165319A1, “INHIBITORS OF INTERLEUKIN-1 BETA CONVERTING ENZYME” (VERTEX PHARMACEUTICALS INCORPORATED, priority 1995, published 2012).
Where two headings read alike, the source gives them in different places.

Key:
[1] = tested on: IL-1β, human peripheral blood mononuclear cells (PBMC); test: PBMC cell assay: IL-1β assay with human PBMC or enriched adherent mononuclear cells, LPS-stimulated; format: cell-based
Outline: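 Mature IL-1β is measured by ELISA in supernatants after 16–18 hr at 37 °C, 5% CO2, with LPS (5 ng/ml final) and test compound (0.1% DMSO final). Cells are human PBMC (6×10^6 cells/ml) or plate-adherent mononuclear cells (2.5−3.0×10^5 per well), and the 5–6 compound concentrations span the ICE Ki.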

IL-1β, human whole blood = test: Whole blood assay for IL-1β production; format: cell-based; details: read-out: Whole human blood IC50
Outline: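 IL-1β was quantified by ELISA in plasma diluted 1:200. The plasma came from EDTA-anticoagulated human whole blood incubated at 30 °C for 16-18 h with LPS (final 5.0 ng/ml) plus a saline serial dilution of compound. Controls were no-LPS, no-inhibitor and highest-vehicle.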

ICE = target: T1, ICE (Homo sapiens, UniProt P29466); test: Enzyme assay with UV-visible substrate (visible ICE assay, Succinyl-Tyr-Val-Ala-Asp-pNitroanilide); format: biochemical
T1 sequence (P29466 120-297 limits assumed): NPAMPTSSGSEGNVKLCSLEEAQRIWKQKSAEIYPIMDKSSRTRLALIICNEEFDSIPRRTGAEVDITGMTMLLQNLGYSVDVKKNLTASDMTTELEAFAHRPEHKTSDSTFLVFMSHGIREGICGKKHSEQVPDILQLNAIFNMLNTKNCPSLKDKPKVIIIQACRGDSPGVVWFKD
T1 sequence (P29466 317-404 limits assumed): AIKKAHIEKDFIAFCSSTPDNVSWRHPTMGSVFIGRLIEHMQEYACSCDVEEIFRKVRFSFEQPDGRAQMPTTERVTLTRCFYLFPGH
Outline: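 Human ICE was preincubated with inhibitor in DMSO and buffer for 15 min at room temperature, then succinyl-Tyr-Val-Ala-Asp-pNA was added. pNA release was followed at 405-603 nm for 20 min at 37° C. Ki and inhibition mode came from fitting rates to standard kinetic equations.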

[2] = * = values obtained upon reassay
[3] = Homo sapiens, PBMC, * = values obtained upon reassay
[4] = Homo sapiens, * = values obtained upon reassay

Structure (SMILES)	IC50 (IL-1β, human whole blood; [4]) [µM]	Ki (ICE; Table 5) [nM]	IC50 (IL-1β, human whole blood; Homo sapiens, Table 17) [µM]	Ki (ICE; Table 17) [nM]	IC50 (IL-1β, human whole blood; [2]) [µM]	IC50 [1, 2] [nM]	IC50 [1, 3] [nM]	IC50 ([1]; Homo sapiens, PBMC, Table 17) [nM]
O=C[C@H](CC(=O)O)NC(=O)[C@@H]1CCCN2C(=O)CC[C@H](NC(=O)c3ccc4ccccc4c3)C(=O)N12 [Compound 407]	1.7	0.4					540	
CC(C)(C)OC(=O)C[C@@H](C=NOCc1c(Cl)cccc1Cl)NC(=O)[C@@H]1CCCN2C(=O)CC[C@H](NC(=O)c3ccccc3)C(=O)N12 [Compound 307a, [3S(1S,9S)3-(9-Benzoylamino-6,10-dioxo-1,2,3,4,7,8,9,10-octahydro-6H-pyridazino-[1,2-a][1,2]diazapine-1-carboxamido)-amino]-4-oxobutanoicacid t-butyl ester, O-(2,6-dichlorophenylmethyl)oxime]		55			16	14500		
CC(=O)N1C[C@H](NC(=O)c2cccc3ccccc23)C(=O)N(CC(=O)N[C@H](C=O)CC(=O)O)c2ccccc21 [Compound 621]	> 20	7.2					1300	
O=C[C@H](CC(=O)O)NC(=O)[C@@H]1CCCN2C(=O)CC[C@H](NC(=O)c3ccc(OCc4ccccc4)cc3)C(=O)N12 [Compound 499]	9	3.5				800	1200	
COc1cccc(OC)c1C(=O)C(=O)N[C@H]1CCC(=O)N2CCC[C@@H](C(=O)N[C@H](C=O)CC(=O)O)N2C1=O [Compound 501]			1.6	2.5				1800
O=C[C@H](CC(=O)O)NC(=O)[C@@H]1CCCN2C(=O)CC[C@H](NC(=O)c3ccc(OC(=O)c4ccc(O)cc4)cc3)C(=O)N12 [Compound 457]	3.5	6.2					2000	
O=C[C@H](CC(=O)O)NC(=O)[C@@H]1CCCN2C(=O)CC[C@H](NC(=O)/C=C/c3ccccc3)C(=O)N12 [Compound 494]	7	15				1500	1350	
CCn1nc(C)cc1C(=O)N[C@H]1CCC(=O)N2CCC[C@@H](C(=O)N[C@H](C=O)CC(=O)O)N2C1=O [Compound 422]	1.2	50					2200	
O=C[C@H](CC(=O)O)NC(=O)[C@@H]1CCCN2C(=O)CC[C@H](NC(=O)c3ccc(O)c(Cl)c3)C(=O)N12 [Compound 498]	0.5	1.5			0.4		560	
Cc1nc(-c2ccc(C(F)(F)F)cc2)sc1C(=O)N[C@H]1CCC(=O)N2CCC[C@@H](C(=O)N[C@H](C=O)CC(=O)O)N2C1=O [Compound 468]	2.5	4.5					850	
CC(=O)N1C[C@H](NC(=O)c2nccc3ccccc23)C(=O)N(CC(=O)N[C@H](C=O)CC(=O)O)c2ccccc21 [Compound 620]	19	35					1000	

The next lines start with results.

IC50 (IL-1β, human whole blood; [4]) [µM]	Ki (ICE; Table 5) [nM]	IC50 (IL-1β, human whole blood; Homo sapiens, Table 17) [µM]	Ki (ICE; Table 17) [nM]	IC50 (IL-1β, human whole blood; [2]) [µM]	Structure (SMILES)	IC50 [1, 2] [nM]	IC50 [1, 3] [nM]	IC50 ([1]; Homo sapiens, PBMC, Table 17) [nM]
4	55				CC(=O)N1C[C@H](NC(=O)C(=O)c2ccccc2)C(=O)N(CC(=O)N[C@H](C=O)CC(=O)O)c2ccccc21 [Compound 635]	3400	1900	
		9.8	30		COc1ccc(C(=O)C(=O)N[C@H]2CN(C(C)=O)c3ccccc3N(CC(=O)N[C@H](C=O)CC(=O)O)C2=O)cc1 [Compound 704]			2600
20	92				CC(=O)N1C[C@H](NC(=O)OCc2ccccc2)C(=O)N(CC(=O)N[C@H](C=O)CC(=O)O)c2ccccc21 [Compound 633]		5750	
		2.2	5		COc1cccc(OC)c1C(=O)C(=O)N[C@H]1CN(C(=O)CO)c2ccccc2N(CC(=O)N[C@H](C=O)CC(=O)O)C1=O [Compound 678]			2700
		2.5	0.8		COCC(=O)N1C[C@H](NC(=O)c2cc(Cl)c(O)c(Cl)c2)C(=O)N(CC(=O)N[C@H](C=O)CC(=O)O)c2ccccc21 [Compound 689a, (3S)-3-[(3S)-2-Oxo-3-(3,5-dichloro-4-hydroxybenzoyl)amino-5-methoxyacetyl-2,3,4,5-tetrahydro-1H-1,5-benzodiazepine-1-acetylamino]-4-oxo-butyric acid]			910
> 20	36				CC(=O)N1C[C@H](NC(=O)c2ccc3c(c2)OCO3)C(=O)N(CC(=O)N[C@H](C=O)CC(=O)O)c2ccccc21 [Compound 628]		2750	
